This is an account of results in patent US10358436B2, “Kinase inhibitors and method of treating cancer” (University Health Network, priority 2010, dated 2019).

As a reminder, the inhibition is the drop in the measured response relative to a control, in per cent. In general, pIC50 refers to the IC50 on a negative log10 scale, so that one unit is a factor of ten.

pIC50: −log10 of the molar value. Counter-ions that a name gives are not always drawn.

Common to all, as to format: biochemical
Assay [1] deals with T1, Aurora A (Homo sapiens (Human), UniProt O14965). Description: Aurora A inhibition assay (Z-Lyte).
T1 sequence (O14965 whole entry): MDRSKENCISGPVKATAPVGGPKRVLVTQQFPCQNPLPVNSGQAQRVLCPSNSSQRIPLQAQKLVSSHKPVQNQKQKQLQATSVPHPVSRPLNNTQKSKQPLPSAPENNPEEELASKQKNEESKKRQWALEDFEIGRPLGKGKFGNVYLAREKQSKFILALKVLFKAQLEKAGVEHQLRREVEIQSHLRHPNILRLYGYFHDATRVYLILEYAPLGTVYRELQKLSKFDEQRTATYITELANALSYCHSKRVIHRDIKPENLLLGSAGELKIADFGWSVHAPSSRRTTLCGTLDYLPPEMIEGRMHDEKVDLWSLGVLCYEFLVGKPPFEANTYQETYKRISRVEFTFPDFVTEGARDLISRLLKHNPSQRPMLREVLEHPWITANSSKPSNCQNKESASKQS
A further assay addresses Abl (Homo sapiens (Human), UniProt P00519). The conditions noted are these: read-out: % Inhibition @ 0.1 μM, Abl.
The target of a further assay is Abl (m) (Mus musculus (Mouse), UniProt P00520). The conditions noted are these: read-out: % Inhibition @ 0.1 μM, Abl (m).
A further assay has as its target Abl (H396P) (Homo sapiens (Human), UniProt P00519, H396P). The conditions noted are these: read-out: % Inhibition @ 0.1 μM, Abl (H396P).
The target of another assay is Abl (M351T) (Homo sapiens (Human), UniProt P00519, M351T). The conditions noted are these: read-out: % Inhibition @ 0.1 μM, Abl (M351T).
In the next assay the target is Abl (Q252H) (Homo sapiens (Human), UniProt P00519, Q252H). The conditions noted are these: read-out: % Inhibition @ 0.1 μM, Abl (Q252H).
Another assay has as its target Abl (T315I) (Homo sapiens (Human), UniProt P00519, T315I). The conditions noted are these: read-out: % Inhibition @ 0.1 μM, Abl (T315I).
The target of a further assay is Abl (Y253F) (Homo sapiens (Human), UniProt P00519, Y253F). The conditions noted are these: read-out: % Inhibition @ 0.1 μM, Abl (Y253F).
In another assay the target is ALK (Homo sapiens (Human), UniProt Q9UM73). The conditions noted are these: read-out: % Inhibition @ 0.1 μM, ALK.
A further assay has as its target Arg (Homo sapiens (Human), UniProt P42684). The conditions noted are these: read-out: % Inhibition @ 0.1 μM, Arg.
The target of another assay is Arg (m) (Mus musculus (Mouse), UniProt Q4JIM5). The conditions noted are these: read-out: % Inhibition @ 0.1 μM, Arg (m).
Sequence of Arg (m) (Q4JIM5 whole entry): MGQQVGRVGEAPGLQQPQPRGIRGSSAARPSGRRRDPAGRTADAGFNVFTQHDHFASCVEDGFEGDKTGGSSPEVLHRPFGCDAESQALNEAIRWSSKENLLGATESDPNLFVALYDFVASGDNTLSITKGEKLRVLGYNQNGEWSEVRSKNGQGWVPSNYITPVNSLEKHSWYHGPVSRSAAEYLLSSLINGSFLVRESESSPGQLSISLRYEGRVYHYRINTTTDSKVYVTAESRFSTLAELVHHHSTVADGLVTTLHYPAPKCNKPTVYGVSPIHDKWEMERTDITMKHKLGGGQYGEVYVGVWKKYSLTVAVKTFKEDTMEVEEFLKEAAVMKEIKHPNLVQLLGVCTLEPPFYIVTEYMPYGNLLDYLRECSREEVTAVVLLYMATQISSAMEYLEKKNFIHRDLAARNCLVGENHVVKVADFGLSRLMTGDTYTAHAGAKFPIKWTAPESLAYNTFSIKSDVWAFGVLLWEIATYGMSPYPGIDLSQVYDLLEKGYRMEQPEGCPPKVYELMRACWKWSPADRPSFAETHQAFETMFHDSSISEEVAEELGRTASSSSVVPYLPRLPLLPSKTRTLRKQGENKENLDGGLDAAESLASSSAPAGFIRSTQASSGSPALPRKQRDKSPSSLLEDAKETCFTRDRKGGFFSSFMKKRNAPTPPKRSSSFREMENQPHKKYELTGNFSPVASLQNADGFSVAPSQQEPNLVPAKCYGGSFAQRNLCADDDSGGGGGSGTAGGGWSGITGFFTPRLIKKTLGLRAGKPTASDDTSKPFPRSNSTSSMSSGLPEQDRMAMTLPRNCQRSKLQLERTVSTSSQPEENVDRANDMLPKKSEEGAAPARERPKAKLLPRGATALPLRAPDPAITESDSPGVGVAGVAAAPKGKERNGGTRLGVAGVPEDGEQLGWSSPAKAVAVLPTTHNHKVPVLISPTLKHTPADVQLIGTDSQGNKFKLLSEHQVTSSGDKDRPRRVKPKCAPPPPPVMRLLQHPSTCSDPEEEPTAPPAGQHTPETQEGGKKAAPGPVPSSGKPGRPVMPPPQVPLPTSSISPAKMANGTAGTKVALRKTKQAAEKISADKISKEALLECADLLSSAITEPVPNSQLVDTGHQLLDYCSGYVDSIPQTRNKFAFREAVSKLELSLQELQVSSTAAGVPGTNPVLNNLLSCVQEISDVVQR
The next assay addresses ARK5 (Homo sapiens (Human), UniProt O60285). The conditions noted are these: read-out: % Inhibition @ 0.1 μM, ARK5.
The target in assay [2] is T1, Aurora A. The conditions noted are these: read-out: % Inhibition @ 0.1 μM, Aurora-A.
A further assay addresses Bmx (Homo sapiens (Human), UniProt P51813). The conditions noted are these: read-out: % Inhibition @ 0.1 μM, Bmx.
The target of another assay is EphA1 (Homo sapiens (Human), UniProt P21709). The conditions noted are these: read-out: % Inhibition @ 0.1 μM, EphA1.
For another assay, the target named is FGFR1 (Homo sapiens (Human), UniProt P11362). The conditions noted are these: read-out: % Inhibition @ 0.1 μM, FGFR1.
Another assay addresses FGFR1 (V561M) (Homo sapiens (Human), UniProt P11362, V561M). The conditions noted are these: read-out: % Inhibition @ 0.1 μM, FGFR1 (V561M).
Another assay deals with FGFR2 (Homo sapiens (Human), UniProt P21802). The conditions noted are these: read-out: % Inhibition @ 0.1 μM, FGFR2.
Another assay deals with FGFR2 (N549H) (Homo sapiens (Human), UniProt P21802, N549H). The conditions noted are these: read-out: % Inhibition @ 0.1 μM, FGFR2 (N549H).
The next assay has as its target FGFR3 (Homo sapiens (Human), UniProt P22607). The conditions noted are these: read-out: % Inhibition @ 0.1 μM, FGFR3.
Another assay addresses GCK (Homo sapiens (Human), UniProt Q12851). The conditions noted are these: read-out: % Inhibition @ 0.1 μM, GCK.
For a further assay, the target named is IRAK1 (Homo sapiens (Human), UniProt P51617). The conditions noted are these: read-out: % Inhibition @ 0.1 μM, IRAK1.
Sequence of IRAK1 (P51617 whole entry): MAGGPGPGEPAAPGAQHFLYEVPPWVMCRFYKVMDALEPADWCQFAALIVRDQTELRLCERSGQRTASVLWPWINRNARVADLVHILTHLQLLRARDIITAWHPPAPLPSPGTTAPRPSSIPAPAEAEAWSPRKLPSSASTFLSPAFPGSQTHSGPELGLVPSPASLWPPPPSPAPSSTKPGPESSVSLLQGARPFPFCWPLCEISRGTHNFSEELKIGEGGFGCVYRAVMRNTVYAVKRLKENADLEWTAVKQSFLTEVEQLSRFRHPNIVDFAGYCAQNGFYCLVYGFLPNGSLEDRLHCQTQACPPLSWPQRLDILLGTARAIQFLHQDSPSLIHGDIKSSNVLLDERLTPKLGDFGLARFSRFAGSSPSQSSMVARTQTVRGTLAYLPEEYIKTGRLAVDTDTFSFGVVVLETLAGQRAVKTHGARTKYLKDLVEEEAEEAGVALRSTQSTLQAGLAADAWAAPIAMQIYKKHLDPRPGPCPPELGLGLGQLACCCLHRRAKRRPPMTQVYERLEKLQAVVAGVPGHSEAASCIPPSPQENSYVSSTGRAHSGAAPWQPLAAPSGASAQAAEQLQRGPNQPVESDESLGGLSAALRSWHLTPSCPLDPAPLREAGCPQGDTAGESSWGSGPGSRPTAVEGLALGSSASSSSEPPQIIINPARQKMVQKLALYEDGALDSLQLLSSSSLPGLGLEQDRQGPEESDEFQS
The target in another assay is Itk (Homo sapiens (Human), UniProt Q08881). The conditions noted are these: read-out: % Inhibition @ 0.1 μM, Itk.
The next assay addresses Lck (Homo sapiens (Human), UniProt P06239). The conditions noted are these: read-out: % Inhibition @ 0.1 μM, Lck.
In the next assay the target is Lck activated (Homo sapiens (Human), UniProt P06239). The conditions noted are these: read-out: % Inhibition @ 0.1 μM, Lck activated.
A further assay deals with MuSK (Homo sapiens (Human), UniProt O15146). The conditions noted are these: read-out: % Inhibition @ 0.1 μM, MuSK.
In a further assay the target is Ret (V804L) (Homo sapiens (Human), UniProt P07949, V804L). The conditions noted are these: read-out: % Inhibition @ 0.1 μM, Ret (V804L).
A further assay has as its target Ron (Homo sapiens (Human), UniProt Q04912). The conditions noted are these: read-out: % Inhibition @ 0.1 μM, Ron.
In a further assay the target is Ros (Homo sapiens (Human), UniProt P08922). The conditions noted are these: read-out: % Inhibition @ 0.1 μM, Ros.
The target of a further assay is Tie2 (Homo sapiens (Human), UniProt Q02763). The conditions noted are these: read-out: % Inhibition @ 0.1 μM, Tie2.
For the next assay, the target named is Tie2 (R849W) (Homo sapiens (Human), UniProt Q02763, R849W). The conditions noted are these: read-out: % Inhibition @ 0.1 μM, Tie2 (R849W).
For a further assay, the target named is Tie2 (Y897S) (Homo sapiens (Human), UniProt Q02763, Y897S). The conditions noted are these: read-out: % Inhibition @ 0.1 μM, Tie2 (Y897S).
For another assay, the target named is TRKA (Homo sapiens (Human), UniProt P04629). The conditions noted are these: read-out: % Inhibition @ 0.1 μM, TrkA.
The target in another assay is human PLK4 (Homo sapiens (Human), UniProt O00444). As to the kind of experiment: PLK4 inhibition assay (indirect ELISA). The conditions noted are these: read-out: PLK4 IC50 Ranges. (In general: ELISA stands for enzyme-linked immunosorbent assay.)
Sequence of human PLK4 (O00444 1-391): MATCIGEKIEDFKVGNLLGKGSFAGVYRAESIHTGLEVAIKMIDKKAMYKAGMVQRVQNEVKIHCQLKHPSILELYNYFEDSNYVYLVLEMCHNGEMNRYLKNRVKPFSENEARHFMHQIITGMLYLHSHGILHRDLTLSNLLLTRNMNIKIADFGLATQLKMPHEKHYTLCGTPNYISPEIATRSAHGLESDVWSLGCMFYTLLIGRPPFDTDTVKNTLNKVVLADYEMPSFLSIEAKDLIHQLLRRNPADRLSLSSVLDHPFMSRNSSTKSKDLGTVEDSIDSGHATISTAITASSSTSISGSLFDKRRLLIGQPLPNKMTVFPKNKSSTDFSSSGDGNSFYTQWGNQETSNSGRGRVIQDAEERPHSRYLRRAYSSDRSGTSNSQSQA
A further assay addresses Aurora B (Homo sapiens (Human), UniProt Q96GD4). Description: Aurora B inhibition assay (Z-Lyte). The conditions noted are these: read-out: Aurora B IC50 Ranges.
Assay [3] concerns the target T2, FLT3 (Homo sapiens (Human), UniProt P36888). Description: FLT3 inhibition assay (Z-Lyte). The conditions noted are these: read-out: Flt3 IC50 Ranges.
Assay [4] has as its target T2, FLT3. As to the kind of experiment: Kinase selectivity assay (CEREP HTRF panel). (In TR-FRET formats the signal depends on donor and acceptor labels being close together.)
The target of the next assay is KDR kinase (VEGFR2) (Homo sapiens (Human), UniProt P35968). Description: Kinase selectivity assay (CEREP HTRF panel).

Sequence of Aurora B (Q96GD4 whole entry): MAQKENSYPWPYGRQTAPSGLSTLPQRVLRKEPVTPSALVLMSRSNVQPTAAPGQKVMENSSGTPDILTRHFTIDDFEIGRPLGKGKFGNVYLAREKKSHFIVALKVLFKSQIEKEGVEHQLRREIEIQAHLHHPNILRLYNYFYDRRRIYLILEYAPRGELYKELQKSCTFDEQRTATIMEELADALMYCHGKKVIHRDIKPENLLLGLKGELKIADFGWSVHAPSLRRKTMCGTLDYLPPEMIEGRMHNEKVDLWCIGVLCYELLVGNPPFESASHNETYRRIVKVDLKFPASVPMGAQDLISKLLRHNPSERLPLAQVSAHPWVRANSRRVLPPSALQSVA
T2 sequence (P36888 27-993): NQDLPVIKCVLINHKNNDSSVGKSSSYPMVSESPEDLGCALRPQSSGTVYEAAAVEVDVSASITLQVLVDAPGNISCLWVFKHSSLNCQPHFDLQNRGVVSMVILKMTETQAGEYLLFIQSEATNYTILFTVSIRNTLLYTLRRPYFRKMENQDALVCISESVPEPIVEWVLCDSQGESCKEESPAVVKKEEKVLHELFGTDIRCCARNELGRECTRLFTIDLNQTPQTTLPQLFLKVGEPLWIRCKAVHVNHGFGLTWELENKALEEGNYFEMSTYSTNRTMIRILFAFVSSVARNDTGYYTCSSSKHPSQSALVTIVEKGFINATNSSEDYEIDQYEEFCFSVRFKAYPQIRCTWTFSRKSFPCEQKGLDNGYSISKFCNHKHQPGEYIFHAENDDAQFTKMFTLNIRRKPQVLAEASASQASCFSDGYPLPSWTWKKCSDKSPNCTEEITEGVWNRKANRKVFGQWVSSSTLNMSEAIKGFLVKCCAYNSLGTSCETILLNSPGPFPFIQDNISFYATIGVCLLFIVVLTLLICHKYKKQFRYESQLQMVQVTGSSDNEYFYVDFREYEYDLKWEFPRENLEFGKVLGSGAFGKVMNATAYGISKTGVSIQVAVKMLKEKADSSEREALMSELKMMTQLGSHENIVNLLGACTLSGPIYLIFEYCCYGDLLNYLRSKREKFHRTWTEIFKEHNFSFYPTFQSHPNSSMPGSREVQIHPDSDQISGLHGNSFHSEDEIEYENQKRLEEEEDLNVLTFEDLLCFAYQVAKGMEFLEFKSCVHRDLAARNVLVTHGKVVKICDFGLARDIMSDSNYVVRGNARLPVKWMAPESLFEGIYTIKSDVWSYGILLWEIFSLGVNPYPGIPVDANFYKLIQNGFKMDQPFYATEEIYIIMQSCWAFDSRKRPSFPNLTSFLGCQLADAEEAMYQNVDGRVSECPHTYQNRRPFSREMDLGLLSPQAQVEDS
Sequence of Bmx (P51813 whole entry): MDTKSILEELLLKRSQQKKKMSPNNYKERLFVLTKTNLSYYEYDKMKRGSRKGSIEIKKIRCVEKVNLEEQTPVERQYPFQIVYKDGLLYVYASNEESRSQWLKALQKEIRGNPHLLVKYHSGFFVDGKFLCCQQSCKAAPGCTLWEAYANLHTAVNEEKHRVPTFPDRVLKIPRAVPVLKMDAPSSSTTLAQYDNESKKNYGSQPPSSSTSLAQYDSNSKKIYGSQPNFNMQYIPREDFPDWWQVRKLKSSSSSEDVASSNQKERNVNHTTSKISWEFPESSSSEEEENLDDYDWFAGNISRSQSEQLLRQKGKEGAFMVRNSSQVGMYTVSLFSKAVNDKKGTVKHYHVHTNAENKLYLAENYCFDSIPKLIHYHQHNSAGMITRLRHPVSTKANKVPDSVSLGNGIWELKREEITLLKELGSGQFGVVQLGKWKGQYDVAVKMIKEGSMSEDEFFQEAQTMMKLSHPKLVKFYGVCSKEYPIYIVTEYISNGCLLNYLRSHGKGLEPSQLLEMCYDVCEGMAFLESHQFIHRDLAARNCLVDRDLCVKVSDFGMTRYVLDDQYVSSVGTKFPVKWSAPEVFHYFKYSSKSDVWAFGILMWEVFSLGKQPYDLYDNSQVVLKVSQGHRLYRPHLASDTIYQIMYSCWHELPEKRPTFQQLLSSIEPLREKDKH

In the case of `COc1ccc2c(c1)[C@]1(C[C@H]1c1ccc3c(/C=C/c4ccc(CN5CCOCC5)cc4)n[nH]c3c1)C(=O)N2` [Example A42, (1R,2S)-(E)-5′-methoxy-2-(3-(4-(morpholinomethyl)styryl)-1H-indazol-6-yl)spiro[cyclopropane-1,3′-indolin]-2′-one hydrochloride], on Aurora A [1], the inhibition at 1 µM is greater than 50%. The inhibition at 0.1 µM on Abl came to 77%; at Abl (m), 92%; at Abl (H396P) it was 93%; at Abl (M351T) it was 91%; on Abl (Q252H), 83%; at Abl (T315I) it was 98%. The inhibition at 0.1 µM at Abl (Y253F) worked out at 75%; on ALK it was 64%; at Arg, 89%; at Arg (m), 90%; on ARK5, 86%; at Aurora A [2], 100%. Moreover, the inhibition at 0.1 µM at Bmx was 92%; at EphA1 it was […]; at FGFR1, […]; on FGFR1 (V561M), 91%; at FGFR2 it was 88%; on FGFR2 (N549H), 87%. The inhibition at 0.1 µM was determined as 90% on FGFR3; 80% at GCK; 52% on IRAK1; 82% at Itk; 77% on Lck; 90% at Lck activated. For the same molecule, the inhibition at 0.1 µM was determined as 90% at MuSK; 60% on Ret (V804L); 62% at Ron; 93% at Ros; 98% at Tie2; 83% on Tie2 (R849W). Also, the inhibition at 0.1 µM at Tie2 (Y897S) came out at 92%; at TRKA it was 100%.
Consider `COc1ccc2c(c1)[C@]1(C[C@H]1c1ccc3c(-c4cccc(C(=O)N5CCN(C)CC5)c4)n[nH]c3c1)C(=O)N2` (relative stereo) [Example A149, (1R*,2S*)-5′-methoxy-2-(3-(3-(4-methylpiperazine-1-carbonyl)phenyl)-1H-indazol-6-yl)spiro[cyclopropane-1,3′-indolin]-2′-one 2,2,2-trifluoroacetate], for which the pIC50 was greater than 7.00 at human PLK4, less than 6.00 at Aurora B and less than 6.00 on FLT3 [3]. The inhibition at 1 µM at Aurora A [1] is less than 50%.
Regarding `O=C1Nc2ccccc2[C@]12C[C@H]2c1ccc2c(-c3ccc(CN4CCOCC4)cc3)n[nH]c2c1` (relative stereo) [Example A154, (1R*,2S*)-2-(3-(4-(morpholinomethyl)phenyl)-1H-indazol-6-yl)spiro[cyclopropane-1,3′-indolin]-2′-one 2,2,2-trifluoroacetate], the pIC50 is greater than 7.00 on human PLK4, 6.00 to 7.00 on Aurora B and 6.00 to 7.00 on FLT3 [3]. The inhibition at 1 µM on Aurora A [1] was greater than 50%.
For `CN(C)Cc1ccc(/C=C/c2n[nH]c3cc([C@H]4C[C@@]45C(=O)Nc4ccccc45)ccc23)cc1` (relative stereo) [Example A26, (1R*,2R*)-(E)-2-(3-(4-((dimethylamino)methyl)styryl)-1H-indazol-6-yl)spiro[cyclopropane-1,3′-indolin]-2′-one 2,2,2-trifluoroacetate], the inhibition at 10 µM is 102% against FLT3 [4] and 58% against KDR kinase (VEGFR2).
`COc1ccc2c(c1)[C@]1(C[C@H]1c1ccc3c(-c4ccc(N5CCNCC5)nc4)n[nH]c3c1)C(=O)N2` (relative stereo) [Example A21, 4-(5-(6-((1R*,2S*)-5′-Methoxy-2′-oxospiro[cyclopropane-1,3′-indoline]-2-yl)-1H-indazol-3-yl)pyridinium-2-yl)piperazine bis(2,2,2-trifluoroacetate)]: the negative-log IC50 (pIC50) at human PLK4 and on Aurora B was greater than 7.00 each time. The inhibition at 1 µM against Aurora A [1] was less than 50%.
On to `COc1ccc2c(c1)[C@]1(C[C@H]1c1ccc3c(/C=C/c4ccc(N5CCNCC5)nc4)n[nH]c3c1)C(=O)N2` (relative stereo) [Example A163, (1R*,2S*)-5′-methoxy-2-(3-((E)-2-(6-(piperazin-1-yl)pyridin-3-yl)vinyl)-1H-indazol-6-yl)spiro[cyclopropane-1,3′-indolin]-2′-one 2,2,2-trifluoroacetate], for which the negative-log IC50 (pIC50) at human PLK4 and at Aurora B was greater than 7.00 throughout. The inhibition at 1 µM at Aurora A [1] is greater than 50%.
Regarding `COc1ccc2c(c1)[C@]1(C[C@H]1c1ccc3c(-c4ccnc(N5CCN(C)CC5)c4)n[nH]c3c1)C(=O)N2` (relative stereo) [Example A37, (1R*,2S*)-5′-Methoxy-2-(3-(2-(4-methylpiperazin-1-yl)pyridin-4-yl)-1H-indazol-6-yl)spiro[cyclopropane-1,3′-indolin]-2′-one], the pIC50 on human PLK4 and on Aurora B was greater than 7.00 in each case. In addition, the inhibition at 1 µM at Aurora A [1] was less than 50%.
